In PubChem BioAssay (NCI):
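Test compounds were applied to cells in 96-well plates for 48 hours at 5 doses. TGI: total growth inhibition.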

Experiments:
Experiment in all cases: growth of human tumour cells (NCI), 48 h
[1] = system: 786-0 renal
[2] = system: A498 renal
[3] = system: A549 NSCLC
[4] = system: ACHN renal
[5] = system: CAKI-1 renal
[6] = system: CCRF-CEM leukemia
[7] = system: COLO 205 colon
[8] = system: DLD-1 colon
[9] = system: DMS 114 small cell lung
[10] = system: DMS 273 small cell lung
[11] = system: EKVX NSCLC
[12] = system: HCC-2998 colon
[13] = system: HCT-116 colon
[14] = system: HCT-15 colon
[15] = system: HL-60(TB) leukemia
[16] = system: HOP-18 NSCLC
[17] = system: HOP-62 NSCLC
[18] = system: HOP-92 NSCLC
[19] = system: HT29 colon
[20] = system: IGROV1 ovarian
[21] = system: K-562 leukemia
[22] = system: KM12 colon
[23] = system: KM20L2 colon
[24] = system: LOX IMVI melanoma
[25] = system: LXFL 529 NSCLC
[26] = system: M14 melanoma
[27] = system: M19-MEL melanoma
[28] = system: MALME-3M melanoma
[29] = system: MOLT-4 leukemia
[30] = system: NCI-H226 lung
[31] = system: NCI-H23 lung
[32] = system: NCI-H460 lung
[33] = system: NCI-H522 lung
[34] = system: OVCAR-3 ovarian
[35] = system: OVCAR-4 ovarian
[36] = system: OVCAR-5 ovarian
[37] = system: OVCAR-8 ovarian
[38] = system: RPMI-8226 leukemia
[39] = system: RXF 393 renal
[40] = system: RXF-631 renal
[41] = system: SF-268 CNS
[42] = system: SF-295 CNS
[43] = system: SF-539 CNS
[44] = system: SK-MEL-28 melanoma
[45] = system: SK-MEL-5 melanoma
[46] = system: SK-OV-3 ovarian
[47] = system: SN12C renal
[48] = system: SNB-19 CNS
[49] = system: SNB-75 CNS
[50] = system: SNB-78 CNS
[51] = system: SW-620 colon
[52] = system: TK-10 renal
[53] = system: U251 CNS
[54] = system: UACC-257 melanoma
[55] = system: UACC-62 melanoma
[56] = system: UO-31 renal
[57] = system: XF 498 CNS
[58] = system: SR leukemia

N#CCCN(CCC#N)c1ccc(C(=O)NN)cc1
TGI [1]: > 100 µM | TGI [2]: > 100 µM | TGI [3]: > 100 µM | TGI [4]: > 100 µM | TGI [5]: > 100 µM | TGI [6]: > 100 µM | TGI [7]: > 100 µM | TGI [8]: > 100 µM | TGI [9]: > 100 µM | TGI [10]: > 100 µM | TGI [11]: > 100 µM | TGI [12]: > 100 µM | TGI [13]: > 100 µM | TGI [14]: > 100 µM | TGI [15]: > 100 µM | TGI [16]: > 100 µM | TGI [17]: > 100 µM | TGI [18]: > 100 µM | TGI [19]: > 100 µM | TGI [20]: > 100 µM | TGI [21]: > 100 µM | TGI [22]: > 100 µM | TGI [23]: > 100 µM | TGI [24]: > 100 µM | TGI [25]: > 100 µM | TGI [26]: > 100 µM | TGI [27]: > 100 µM | TGI [28]: > 100 µM | TGI [29]: > 100 µM | TGI [30]: > 100 µM | TGI [31]: > 100 µM | TGI [32]: > 100 µM | TGI [33]: > 100 µM | TGI [34]: > 100 µM | TGI [35]: > 100 µM | TGI [36]: > 100 µM | TGI [37]: > 100 µM | TGI [38]: > 100 µM | TGI [39]: > 100 µM | TGI [40]: > 100 µM | TGI [41]: > 100 µM | TGI [42]: > 100 µM | TGI [43]: > 100 µM | TGI [44]: > 100 µM | TGI [45]: > 100 µM | TGI [46]: > 100 µM | TGI [47]: > 100 µM | TGI [48]: > 100 µM | TGI [49]: > 100 µM | TGI [50]: > 100 µM | TGI [51]: > 100 µM | TGI [52]: > 100 µM | TGI [53]: > 100 µM | TGI [54]: > 100 µM | TGI [55]: > 100 µM | TGI [56]: > 100 µM | TGI [57]: > 100 µM

CC(C)=CC(=O)N1CCN(C(=O)C=C(C)C)CC1
TGI [1]: > 100 µM | TGI [2]: > 100 µM | TGI [3]: > 100 µM | TGI [4]: > 100 µM | TGI [5]: > 100 µM | TGI [6]: > 100 µM | TGI [8]: > 100 µM | TGI [9]: > 100 µM | TGI [10]: > 100 µM | TGI [11]: > 100 µM | TGI [12]: > 100 µM | TGI [13]: > 100 µM | TGI [14]: > 100 µM | TGI [15]: > 100 µM | TGI [16]: > 100 µM | TGI [17]: > 100 µM | TGI [18]: > 100 µM | TGI [19]: > 100 µM | TGI [20]: > 100 µM | TGI [21]: > 100 µM | TGI [22]: > 100 µM | TGI [23]: > 100 µM | TGI [24]: > 100 µM | TGI [25]: > 100 µM | TGI [26]: > 100 µM | TGI [27]: > 100 µM | TGI [29]: > 100 µM | TGI [31]: > 100 µM | TGI [32]: > 100 µM | TGI [33]: > 100 µM | TGI [34]: > 100 µM | TGI [35]: > 100 µM | TGI [36]: > 100 µM | TGI [37]: > 100 µM | TGI [38]: > 100 µM | TGI [40]: > 100 µM | TGI [41]: > 100 µM | TGI [42]: > 100 µM | TGI [43]: > 100 µM | TGI [44]: > 100 µM | TGI [45]: > 100 µM | TGI [46]: > 100 µM | TGI [47]: > 100 µM | TGI [48]: > 100 µM | TGI [49]: > 100 µM | TGI [50]: > 100 µM | TGI [58]: > 100 µM | TGI [51]: > 100 µM | TGI [52]: > 100 µM | TGI [53]: > 100 µM | TGI [54]: > 100 µM | TGI [55]: > 100 µM | TGI [56]: > 100 µM | TGI [57]: > 100 µM

CCc1nc2ccccc2c(=O)n1/N=C(\N=Nc1ccc(Cl)cc1)c1ccccc1Cl
TGI [1]: > 100 µM | TGI [2]: > 100 µM | TGI [4]: > 100 µM | TGI [5]: > 100 µM | TGI [7]: > 100 µM | TGI [9]: 74.2 µM | TGI [10]: > 100 µM | TGI [13]: > 100 µM | TGI [14]: > 100 µM | TGI [16]: > 100 µM | TGI [17]: > 100 µM | TGI [18]: 64.9 µM | TGI [19]: > 100 µM | TGI [20]: > 100 µM | TGI [23]: > 100 µM | TGI [24]: > 100 µM | TGI [25]: 85.3 µM | TGI [26]: > 100 µM | TGI [27]: > 100 µM | TGI [29]: 96.4 µM | TGI [31]: > 100 µM | TGI [32]: > 100 µM | TGI [37]: > 100 µM | TGI [39]: 72.5 µM | TGI [40]: > 100 µM | TGI [41]: > 100 µM | TGI [42]: > 100 µM | TGI [43]: > 100 µM | TGI [44]: 80.4 µM | TGI [46]: > 100 µM | TGI [47]: > 100 µM | TGI [52]: > 100 µM | TGI [53]: > 100 µM | TGI [55]: > 100 µM | TGI [56]: 69.9 µM | TGI [57]: 71.6 µM

NCC(=O)NC(CCCC(NC(=O)CN)P(=O)(O)O)P(=O)(O)O (configuration not stated)
TGI [2]: > 100 µM | TGI [3]: > 100 µM | TGI [4]: > 100 µM | TGI [6]: > 100 µM | TGI [9]: > 100 µM | TGI [10]: > 100 µM | TGI [11]: > 100 µM | TGI [13]: > 100 µM | TGI [15]: > 100 µM | TGI [17]: > 100 µM | TGI [18]: > 100 µM | TGI [19]: > 100 µM | TGI [20]: > 100 µM | TGI [22]: > 100 µM | TGI [23]: > 100 µM | TGI [26]: > 100 µM | TGI [27]: > 100 µM | TGI [29]: > 100 µM | TGI [30]: > 100 µM | TGI [31]: > 100 µM | TGI [32]: > 100 µM | TGI [33]: > 100 µM | TGI [36]: > 100 µM | TGI [37]: > 100 µM | TGI [39]: > 100 µM | TGI [40]: > 100 µM | TGI [42]: > 100 µM | TGI [44]: > 100 µM | TGI [46]: > 100 µM | TGI [50]: > 100 µM | TGI [58]: > 100 µM | TGI [52]: > 100 µM | TGI [53]: > 100 µM | TGI [54]: > 100 µM | TGI [55]: > 100 µM
